In US7776570B2, “L-amino acid amide asymmetric hydrolase and DNA encoding the same” (Mitsubishi Gas Chemical Company, Inc., priority 2004, dated 2010):

Columns and labels:
X. flavus living cells = experiment: Asymmetric hydrolysis of 2-methylcysteine amide racemic mixture by using a wild-type microorganism; assay type: biochemical, Xanthobacter flavus; conditions: for 2-methylcysteine produced: 30° C., 24 hours, HPLC condition B; for optical purity of the L-amino acid: supernatant, HPLC condition A
Procedure: A medium having a composition as shown in the following Table 5 was prepared, and 200 mL of the medium was poured into a 1-L conical flask and sterilized. After that, X. flavus was inoculated thereto and shaking culture was performed at 30° C. for 170 hours. Subsequently, the culture solution was subjected to centrifugation, to thereby obtain living cells corresponding to 0.1 g of dry cells.
10.0 g (58.6 mmol) of racemic mixture of 2-methylcysteine amide hydrochloride was dissolved into 300 mL of 50 mM phosphate buffer (pH 7.0). After that, the mixture was poured into a 500-mL flask, which was added with an aqueous manganese chloride solution such that the concentration of a divalent Mn ion became 10 ppm, and further added with the living cells corresponding to 0.01 g of dry cells, followed by stirring culture at 30° C. for 24 hours under a nitrogen stream to allow a hydrolysis reaction to proceed. After completion of the reaction, the reaction solution was subjected to centrifugation to remove the cells, and the supernatant was analyzed under the HPLC condition B as shown in the following Table 6.
10 L of the culture solution obtained after culture in the medium composition in Comparative Example 1 was subjected to centrifugation, to thereby obtain living cells corresponding to 5 g of dry cells of X. flavus. 10.0 g (58.6 mmol) of a racemic mixture of 2-methylcysteine amide hydrochloride was dissolved into 300 mL of 50 mM phosphate buffer (pH 7.0). After that, the mixture was poured into 500-mL flask, which was added with an aqueous manganese chloride solution such that the concentration of a divalent Mn ion became 10 ppm, and further added with the living cells corresponding to 5 g of dry cells, followed by stirring culture at 30° C. for 24 hours under a nitrogen stream to allow a hydrolysis reaction to proceed. After completion of the reaction, the reaction solution was subjected to centrifugation to remove the cells therefrom, and the supernatant was analyzed under the HPLC condition B. As a result, it was confirmed that 28.2 mmol of 2-methylcysteine was produced. In addition, the supernatant was analyzed under the HPLC condition A, and as a result, the optical purity of the L-amino acid was not less than 98% e.e.
A biochemical asymmetric hydrolysis reaction was performed in the same manner as in Comparative Example 2 except that the aqueous manganese chloride solution was not added. The reaction was performed at 30° C. for 24 hours. After completion of the reaction, the reaction solution was subjected to centrifugation to remove the cells therefrom, and then the supernatant was analyzed under the HPLC condition B. As a result, it was confirmed that 13.9 mmol of 2-methylcysteine was produced. In addition, the supernatant was analyzed under the HPLC condition A, and as a result, the optical purity of the L-amino acid was not less than 98% e.e.

[1] = test system: L-amino acid amide asymmetric hydrolase (transformant strain pMCA1/JM109 cells); experiment: Asymmetric hydrolysis of racemic amino acid amides by using the transformant pMCA1/JM109; assay type: biochemical, Xanthobacter flavus; conditions: 0.1% substrate, 50 mM phosphate buffer pH 7.0, 30° C.
Procedure: A medium having a composition as shown in the following Table 3 was prepared, and 200 mL of the medium was poured into 1-L conical flask and sterilized. After that, the medium was added with 50 μg/mL ampicillin and then inoculated with the transformant strain pMCA1/JM109, followed by shaking culture at 37° C. for 15 hours. Subsequently, the culture solution was subjected to centrifugation, to thereby obtain living cells corresponding to 0.1 g of dry cells.
Enzymatic reactions were performed by using a culture solution of the transformant strain pMCA 1/JM109 which had been cultured in the same manner as in Example 7 and a racemic mixture of various amino acid amides as a substrate. Each of the substrate compound was dissolved into 50 mM phosphate buffer (pH 7.0) such that the substrate concentration was adjusted to 0.1%, and the substrate solution was added with the cells to perform an enzymatic reaction at 30° C. […] In any of the reactions, selectivity of hydrolysis is selective to an L-form, and optical purity of the produced L-amino acid was not less than 98% e.e.

[2] = 5 g dry cells, no manganese chloride added
[3] = substrate weight/dry cell weight 0.01, reaction time 5 hr
[4] = substrate weight/dry cell weight 0.01, reaction time 24 hr
[5] = substrate weight/dry cell weight 0.1, reaction time 24 hr

In the case of `C[C@](N)(CS)C(N)=O.Cl` (racemic) [2-methylcysteine amide, 2-methylcysteine amide hydrochloride], the 2-methylcysteine produced (X. flavus living cells; 0.01 g dry cells, 58.6 mmol substrate, 10 ppm divalent Mn ion) is reported as “no 2-methylcysteine as a product was observed”, the 2-methylcysteine produced (X. flavus living cells; 5 g dry cells, 58.6 mmol substrate, 10 ppm divalent Mn ion) is reported as 28.2 mmol and the “optical purity of the L-amino acid” value (X. flavus living cells; 5 g dry cells, 10 ppm divalent Mn ion) is reported as “not less than 98 % e.e”. For the same compound, the 2-methylcysteine produced (X. flavus living cells; [2]) was 13.9 mmol and the “optical purity of the L-amino acid” value (X. flavus living cells; [2]) was “not less than 98 % e.e”.
`NC(=O)[C@@H](N)Cc1ccccc1` (racemic) [Phenylalanine amide] showed a Reaction rate [1, 3] of 47.8%.
Compound `NC(=O)C(N)c1ccccc1` (racemic) [Phenylglycine amide] has a Reaction rate [1, 3] of 48.8%.
Work on `CC(C)[C@H](N)C(N)=O` (racemic) [Valine amide] yielded a Reaction rate [1, 4] of 44.3%.
In the case of `CC(C)(S)[C@H](N)C(N)=O` (racemic) [penicillamine amide], the Reaction rate [1, 3] is reported as 44.9%.
For `CC(C)(C)[C@H](N)C(N)=O` (racemic) [t-leucine amide], the Reaction rate [1, 5] was 44.4%.
Compound `CCC(N)C(N)=O` (stereo not shown) [2-amino butyrate amide] has a Reaction rate ([1]; substrate weight/dry cell weight 0.1, reaction time 5 hr) of 49.2%.
`CC1(C)SCNC1C(N)=O` (stereo not shown) [5,5-dimethylthiazolidin-4-carboxylate amide] showed a Reaction rate [1, 5] of 47.0%.
Work on Allicin amide ethylene acetal yielded a Reaction rate [1, 4] of 44.3%.
